# Experimental data as given in patent US20050085554A1, “Methods of treating disease through the administration of a manzamine analog or derivative” (priority 2003, published 2005).
# How the values were obtained:
# Aspergillus fumigatus = test: Antifungal activity against Aspergillus fumigatus; assay type: cell-based; details: T6, footnote a: the lowest concentration that significantly inhibits growth
# Staphylococcus aureus = test: Antibacterial activity against S. aureus; assay type: cell-based; details: for Antibacterial IC50 S. aureus: T5, NA = not active
# [1] = tested on: Plasmodium falciparum (D6 clone); test: Antimalarial activity in vitro, D6 clone; assay type: cell-based
# [2] = tested on: P. falciparum (chlorine-resistant W2 clone); test: Antimalarial activity in vitro, W2 clone; assay type: cell-based, Plasmodium falciparum
# [3] = tested on: Mycobacterium intracellulare; test: Activity against M. intracellulare; assay type: cell-based; details: for IC50 M. intracellulare: T5, NA = not active
# [4] = tested on: methicillin-resistant Staphylococcus aureus; test: Antibacterial activity against MRS; assay type: cell-based; details: for Antibacterial IC50 MRS: T5, NA = not active
# [5] = tested on: Mycobacterium tuberculosis H37Rv; test: In vitro antimycobacterial activity (Microplate Alamar Blue Assay), MIC; assay type: cell-based; details: for Mycobacterium Tuberculosis (H37Rv) MIC: T4; for MIC against Mycobacterium tuberculosis (Mtb): rifampin = positive control
# Candida albicans = test: Antifungal activity against Candida albicans; assay type: cell-based
# Cryptococcus neoformans = test: Antifungal activity against Cryptococcus neoformans; assay type: cell-based; details: for Antifungal IC50 C. neoformans: T5, NA = not active
# Leishmania donovani = test: Antileishmanial activity in vitro; assay type: cell-based
# HIV-1LAV = test: Anti-HIV-1 activity in PBM cells; assay type: cell-based, human immunodeficiency virus (HIV-1); details: for EC50: T5
# Procedure: Anti-HIV-1 activity was determined in PBM cells as described previously. See, Stock solutions (20 or 40 mM) of the compounds were prepared in sterile DMSO and then diluted to the desired concentration in growth medium. Cells were infected with the prototype HIV-1LAV at a multiplicity of infection of 0.1. Details on the infection of cells and assessment of antiviral effects was described previously. See, Schinazi, R. F.; McMillan, A.; Cannon, D.; Mathis, R.; Lloyd, R. M.; Peck, A.; Sommadossi, J.-P.; Clair, M. S.; Wilson, J.; Furman, P. A.; Painter G.; Choi, W.-B.; Liotta, D. C. Antimicrob. Agents Chemother. 1992, 36, 2423-2431 and Schinazi, R. F.; Sommadossi, J.-P.; Saalmann, V.; Cannon, D. L.; Xie, M.-Y.; Hart, G. C.; Smith, G. A.; Hahn, E. F. Antimicrob. Agents Chemother. 1990, 34, 1061-1067.
# [6] = tested on: human lung carcinoma A-549
# [7] = tested on: human colon carcinoma H-116
# Vero cells = test: In vitro cytotoxicity to mammalian cells (Vero)
# [8] = T4, NC = No Cytotoxicity (concentration: 4760 ng/ml)
molecule,measurement,setting,value
"C1=C/[C@@H]2[C@H]3CCCC[C@@H]3C[C@@H]2NCCCNC2C[C@H]3CCCC[C@@H]3[C@H]2/C=C/1 (single isomer, unassigned; (-)) [Papuamine, (−)-papuamine]",MIC,Aspergillus fumigatus; Aspergillus fumigatus,1.25 µg/mL
same,MIC,"Staphylococcus aureus; Staphylococcus aureus, T6",5 µg/mL
same,IC50,"Staphylococcus aureus; Staphylococcus aureus, T6, read-out: Staphylococcus aureus IC50",2.5 µg/mL
same,IC50,"[1]; Plasmodium falciparum, D6, T6",0.15 µg/mL
same,IC50,"[2]; Plasmodium falciparum, W2, T6, read-out: P. falciparum (W2 clone) IC50",0.34 µg/mL
same,IC50,"[3]; Mycobacterium intracellulare, T6, read-out: Mycobacterium intracellulare IC50",4 µg/mL
same,MIC,"[4]; Staphylococcus aureus, T6",5 µg/mL
same,IC50,"[4]; T6, MRS: methicillin-resistant Staphylococcus aureus, read-out: MRS IC50",2.5 µg/mL
same,MIC,"[5]; Mycobacterium tuberculosis, H37RV, T6, read-out: Mycobacterium tuberculosis MIC",0.4 µg/mL
same,IC50,"Candida albicans; Candida albicans, T6",1.5 µg/mL
same,MIC,"Candida albicans; Candida albicans, T6, MIC: lowest concentration that allows no detectable growth",5 µg/mL
same,MIC,"Cryptococcus neoformans; Cryptococcus neoformans, lowest concentration that allows no detectable growth",0.63 µg/mL
same,IC50,"Cryptococcus neoformans; Cryptococcus neoformans, read-out: Cryptococcus neoformans IC50",0.35 µg/mL
O[C@]12C=C(c3nccc4c3[nH]c3ccccc34)C3CCN(CCCC/C=C\CC1)C[C@@]31C[C@]34CC[C@H](CCCN3[C@H]12)O4 (stereo partly drawn) [6-Deoxymanzamine X],Antibacterial IC50 S. aureus,Staphylococcus aureus,1.5 µg/mL
same,Plasmodium falciparum (D6 clone) IC 50,"[1]; T4, NA = not active",1300 ng/mL
same,P. falciparum (chlorine-resistant W2 clone) IC 50,"[2]; T4, NA = not active",1400 ng/mL
same,Leishmania donovani IC 50,Leishmania donovani; T4,3.2 µg/mL
same,Leishmania donovani IC 90,Leishmania donovani; T4,7.5 µg/mL
same,IC50 M. intracellulare,[3],6.25 µg/mL
same,EC50,HIV-1LAV,1600 nM
same,Antibacterial IC50 MRS,[4],1.5 µg/mL
same,Mycobacterium Tuberculosis (H37Rv) MIC,[5],1.77 µg/mL
same,Antifungal IC50 C. neoformans,Cryptococcus neoformans,2.0 µg/mL
"C[C@@H]1[C@H](O)[C@@H](C)/C=C/C=C/C=C/C=C/C=C/C=C/C=C/[C@H](O[C@@H]2O[C@H](C)[C@@H](O)[C@H](N)[C@@H]2O)C[C@@H]2O[C@](O)(C[C@@H](O)C[C@@H](O)[C@H](O)CC[C@@H](O)C[C@@H](O)CC(=O)O[C@H]1C)C[C@H](O)[C@H]2C(=O)O [Amphotericin B, reference compound]",Aspergillus fumigatus MIC,Aspergillus fumigatus,0.63^a μg/mL
same,Leishmania donovani IC 50,Leishmania donovani; T4,0.06 µg/mL
same,Leishmania donovani IC 90,Leishmania donovani; T4,0.15 µg/mL
same,Candida albicans IC50,Candida albicans; T6,0.10 µg/mL
same,Candida albicans MIC,"Candida albicans; T6, MIC: lowest concentration that allows no detectable growth",0.63 µg/mL
same,Cryptococcus neoformans IC50,Cryptococcus neoformans,0.25 µg/mL
same,Antifungal IC50 C. neoformans,Cryptococcus neoformans,0.15 µg/mL
same,Cryptococcus neoformans MIC,Cryptococcus neoformans; lowest concentration that allows no detectable growth,0.63 µg/mL
CC(=O)C[C@H]1C[C@H]2[C@H]([C@@H]3c4[nH]c5ccccc5c4CCN13)[C@H](O)C13CC/C=C\CCCCN1CC21C2CCCCCCCN2[C@H]13 (stereo partly drawn) [Manadomanzamine A],IC50 against human lung carcinoma A-549,[6],2.5 µg/mL
same,IC50 against human colon carcinoma H-116,[7],5.0 µg/mL
same,EC50 against human immunodeficiency virus (HIV-1),HIV-1LAV,6.96 µg/mL
same,MIC against Mycobacterium tuberculosis (Mtb),[5],1.86 µg/mL
same,IC50 against the fungus Candida albicans,Candida albicans,20 µg/mL
CC(=O)C[C@@H]1C[C@H]2[C@H]([C@@H]3c4[nH]c5ccccc5c4CCN13)[C@H](O)C13CC/C=C\CCCCN1CC21C2CCCCCCCN2[C@H]13 (stereo partly drawn) [Manadomanzamine B],IC50 against human colon carcinoma H-116,[7],5.0 µg/mL
same,EC50 against human immunodeficiency virus (HIV-1),HIV-1LAV,16.5 µg/mL
same,MIC against Mycobacterium tuberculosis (Mtb),[5],1.53 µg/mL
same,IC50 against the fungus Cryptococcus neoformans,Cryptococcus neoformans,3.5 µg/mL
O[C@]12C=C(c3nccc4c3[nH]c3ccccc34)[C@@H]3CCN(CCCC/C=C\CC1)C[C@@]31C[C@@H]3/C=C\CCCCN3[C@H]12 [Manzamine A],Antibacterial IC50 S. aureus,Staphylococcus aureus,0.5 µg/mL
same,Cytotoxicity (Vero),Vero cells; [8],1200 ng/mL
same,Cytotoxicity (Vero),"Vero cells; T7, NC not defined in this table",1200 ng/mL
same,Plasmodium falciparum (D6 clone) IC 50,"[1]; T4, NA = not active",4.5 ng/mL
same,Plasmodium falciparum (D6 clone) IC 50,[1]; T7,4.5 ng/mL
same,P. falciparum (chlorine-resistant W2 clone) IC 50,"[2]; T4, NA = not active",8.0 ng/mL
same,P. falciparum (chlorine-resistant W2 clone) IC 50,[2]; T7,8.0 ng/mL
same,Leishmania donovani IC 50,Leishmania donovani; T4,0.9 µg/mL
same,Leishmania donovani IC 90,Leishmania donovani; T4,1.8 µg/mL
same,Leishmania donovani IC 50,Leishmania donovani; T7,0.9 µg/mL
same,Leishmania donovani IC 90,Leishmania donovani; T7,1.8 µg/mL
same,IC50 M. intracellulare,[3],0.35 µg/mL
same,M. intracellulare IC50,"[3]; T7, first value of a cell '2.0/5.0'",1.53 µg/mL
same,EC50,HIV-1LAV,4200 nM
same,Antibacterial IC50 MRS,[4],0.7 µg/mL
same,Mycobacterium Tuberculosis (H37Rv) MIC,[5],1.53 µg/mL
same,Antifungal IC50 C. neoformans,Cryptococcus neoformans,3.0 µg/mL
Manzamine A N-oxide,Antibacterial IC50 S. aureus,Staphylococcus aureus,0.5 µg/mL
same,Cytotoxicity (Vero),Vero cells; [8],420 ng/mL
same,Plasmodium falciparum (D6 clone) IC 50,"[1]; T4, NA = not active",11 ng/mL
same,P. falciparum (chlorine-resistant W2 clone) IC 50,"[2]; T4, NA = not active",13 ng/mL
same,Leishmania donovani IC 50,Leishmania donovani; T4,1.1 µg/mL
same,Leishmania donovani IC 90,Leishmania donovani; T4,3.8 µg/mL
same,IC50 M. intracellulare,[3],0.2 µg/mL
same,Antibacterial IC50 MRS,[4],0.35 µg/mL
same,Mycobacterium Tuberculosis (H37Rv) MIC,[5],3.9 µg/mL
same,Antifungal IC50 C. neoformans,Cryptococcus neoformans,1.0 µg/mL
xestomanzamine A,Cytotoxicity IC50 A-594,[6],>5 µg/mL
same,Cytotoxicity IC50 H-116,[7],>5 µg/mL
same,EC50 against human immunodeficiency virus (HIV-1),HIV-1LAV,11.2 µg/mL
same,Anti-TB MIC,"[5]; T1, no unit in table",14.1 µg/mL
same,IC50 against the fungus Cryptococcus neoformans,Cryptococcus neoformans,6.0 µg/mL
